Reference: patent US5700789A, “Antiallergic composition comprising a phosphoric diester compound” (Senju Pharmaceutical Co., Ltd., priority 1995, dated 1997)
Where a name gives a salt, the structure may show the parent alone.

Legend:
[1] = test system: Type III allergic conjunctivitis; test: Type III allergic conjunctivitis in rats (rat antirabbit serum injected subconjunctivally); assay type: in vivo; details: 5 μl/eye, 6 instillations, 0.1% EPC-Na or 0.1% as dexamethasone, wet weight 0.5 hr after last instillation, mean ± S.D. (n = 4), * p<0.001 vs control
Protocol: The effect of the compound of the invention on Type III allergic conjunctivitis was evaluated.
(1) 0.1% EPC-Na (dissolved in physiological saline)
(2) 0.15% dexamethasone sodium metasulfobenzoate
(Visualin Ophthalmic Solution (registered trademark, Senju Pharmaceutical Co. Ltd.) (0.1% as dexamethasone, hereinafter referred to briefly as dexamethasone)
The rats were divided into three groups, namely a control group, an EPC-Na group and a dexamethasone group, and 30 μl of rat antirabbit serum was injected subconjunctivally at both lids. Two (2), 1.5, and 0.5 hr before subconjunctival injection and 0.5, 1.5, and 2.5 hr after the injection, rats in the control group were topically treated with 5 μl/eye of physiological saline and those in the test groups were similarly treated with 5 μl/eye of the respective test materials. At 0.5 hr after the last instillation, the rats were sacrificed, the edema weight (wet weight/mg) was determined, and the inhibition rate (%) with respect to the control group was calculated.

[2] = test system: palpebral edema induced by the histamine releaser Compound 48/80; test: Palpebral edema induced by the histamine releaser Compound 48/80 in rats (topical instillation); assay type: in vivo, rat (male SD); details: 5 μl/eye of 0.1% test material; for Inhibition rate: edema inhibition rate with respect to the control group, 4 hr after Compound 48/80; for Edema weight: male SD rats, 6 instillations, wet weight 4 hr after Compound 48/80, * p<0.001 vs control
Protocol: The effect of the compound of the invention on the palpebral edema induced by the histamine releaser Compound 48/80 (the condensation product of N-methyl-p-methoxy-phenethylamine with formaldehyde) (Sigma Chemical Company) was evaluated.
(1) 0.1% L-ascorbyl DL-α-tocopheryl phosphate sodium (Abbreviation: EPC-Na) (dissolved in physiological saline and adjusted to pH 7.0)
(2) 0.1% diphenhydramine hydrochloride (an antihistaminic) (dissolved in physiological saline)
Method: Male SD rats weighing about 180 g were used.
The rats were divided into three groups, i.e. a control group, an EPC-Na group, and a diphenhydramine HCl group, and 20 μl/eye of 0.008% Compound 48/80 (dissolved in physiological saline) was injected subconjunctivally at both lids to induce palpebral edema. Two (2), 1, and 0.5 hr before subconjunctival injection and 0.5, 1.5, and 2.5 hr after the injection, rats in the control group were topically treated with 5 μl/eye of physiological saline and those in the EPC-Na group and diphenhydramine HCl group were similarly treated with 5 μl/eye of the corresponding test materials. Four (4) hr after injection of Compound 48/80 (1.5 hr after the last instillation), the rats were sacrificed and the edematous portion of the palpebra was excised, its wet weight (mg) was determined, and the edema inhibition rate (%) with respect to the control group was calculated.

[3] = Acute toxicity (LD50) in rats; details: rat, in vivo, iv; i.v. (rats)

| Structure (SMILES) | Edema weight [1] [mg] | Inhibition rate [2] [%] | Edema weight [2] [mg] | LD50 [3] [mg/kg] |
| --- | --- | --- | --- | --- |
| C[C@@H]1C[C@H]2[C@@H]3CCC4=CC(=O)C=C[C@]4(C)[C@@]3(F)[C@@H](O)C[C@]2(C)[C@@]1(O)C(=O)COC(=O)c1cccc(S(=O)(=O)O)c1 [Dexamethasone, dexamethasone sodium metasulfobenzoate, reference compound] | 58.2 ± 3.8 |  |  |  |
| Cc1c(C)c2c(c(C)c1OP(=O)(O)OC1=C(O)[C@@H]([C@@H](O)CO)OC1=O)CCC(C)(CCCC(C)CCCC(C)CCCC(C)C)O2 (mixture of isomers) [EPC-Na, L-ascorbyl DL-α-tocopheryl phosphate sodium] | 57.4 ± 8.1 | 33.5 | 76.1 ± 11.6 |  |
| CN(C)CCOC(c1ccccc1)c1ccccc1 [Diphenhydramine HCl, diphenhydramine hydrochloride, reference compound] |  | 44.8 | 63.2 ± 8.2 |  |
| Cc1c(C)c2c(c(C)c1OP(=O)(O)OC1=C(O)[C@@H]([C@@H](O)CO)OC1=O)CCC(C)(CCCC(C)CCCC(C)CCCC(C)C)O2 (mixture of isomers) [EPC-K, L-ascorbyl DL-α-tocopheryl phosphate potassium] |  |  |  | ≥ 100 |
